Several values for one entry are separate records, joined by “and”; a condition that tells them apart may be missing. Equal values may be shown once. ± gives the expanded uncertainty stated by the source.
Assay: molar heat capacity at constant pressure
Conditions: 101.33 kPa, Vacuum adiabatic calorimetry

CCC[n+]1ccn(C)c1.[Br-] [1-methyl-3-propylimidazolium bromide]
molar heat capacity at constant pressure
Conditions	Crystal 2	Liquid
228.67 K	177 ± 0.8 J/K/mol	–
229.42 K	177.5 ± 0.8 J/K/mol	–
230 K	177.8 ± 0.8 J/K/mol	261.5 ± 1.1 J/K/mol
230.71 K	178.2 ± 0.8 J/K/mol	–
231.48 K	178.7 ± 0.8 J/K/mol	–
233.47 K	180 ± 0.8 J/K/mol	–
233.54 K	180 ± 0.8 J/K/mol	–
235.59 K	181.3 ± 0.8 J/K/mol	–
235.81 K	181.5 ± 0.8 J/K/mol	–
237.64 K	182.5 ± 0.8 J/K/mol	–
237.86 K	182.7 ± 0.8 J/K/mol	–
239.69 K	183.9 ± 0.8 J/K/mol	–
239.9 K	184.1 ± 0.8 J/K/mol	–
240 K	184.1 ± 0.8 J/K/mol	263.8 ± 1.1 J/K/mol
241.74 K	185.1 ± 0.8 J/K/mol	–
241.94 K	185.3 ± 0.8 J/K/mol	–
243.78 K	186.4 ± 0.8 J/K/mol	–
243.99 K	186.6 ± 0.8 J/K/mol	–
245.82 K	187.8 ± 0.8 J/K/mol	–
246.03 K	187.9 ± 0.8 J/K/mol	–
247.86 K	189.1 ± 0.8 J/K/mol	–
248.07 K	189.3 ± 0.8 J/K/mol	–
249.89 K	190.6 ± 0.8 J/K/mol	–
250 K	190.6 ± 0.8 J/K/mol	266.2 ± 1.1 J/K/mol
250.11 K	190.7 ± 0.8 J/K/mol	–
251.92 K	192 ± 0.8 J/K/mol	–
252.16 K	192.2 ± 0.8 J/K/mol	–
253.95 K	193.4 ± 0.8 J/K/mol	–
254.2 K	193.6 ± 0.8 J/K/mol	–
255.97 K	194.9 ± 0.8 J/K/mol	–
256.25 K	195.1 ± 0.8 J/K/mol	–
257.98 K	196.4 ± 0.8 J/K/mol	–
258.29 K	196.7 ± 0.8 J/K/mol	–
260 K	198 ± 0.8 J/K/mol and 198.1 ± 0.9 J/K/mol	269.1 ± 1.2 J/K/mol
260.33 K	198.3 ± 0.8 J/K/mol	–
262 K	199.6 ± 0.8 J/K/mol	–
262.37 K	199.9 ± 0.9 J/K/mol	–
264.01 K	201.2 ± 0.9 J/K/mol	–
264.42 K	201.7 ± 0.9 J/K/mol	–
266.06 K	203.2 ± 0.9 J/K/mol	–
266.47 K	203.4 ± 0.9 J/K/mol	–
268.16 K	205.1 ± 0.9 J/K/mol	–
268.52 K	205.3 ± 0.9 J/K/mol	–
270 K	206.7 ± 0.9 J/K/mol	272 ± 1.2 J/K/mol
270.26 K	207.1 ± 0.9 J/K/mol	–
270.57 K	207.1 ± 0.9 J/K/mol	–
272.36 K	209.2 ± 0.9 J/K/mol	–
272.62 K	209.4 ± 0.9 J/K/mol	–
274.45 K	211.5 ± 0.9 J/K/mol	–
274.67 K	211.5 ± 0.9 J/K/mol	–
276.54 K	213.9 ± 0.9 J/K/mol	–
276.71 K	213.9 ± 0.9 J/K/mol	–
278.62 K	216.6 ± 0.9 J/K/mol	–
278.75 K	216.6 ± 0.9 J/K/mol	–
280 K	216.4 ± 0.9 J/K/mol	275.1 ± 1.2 J/K/mol
280.68 K	219.5 ± 0.9 J/K/mol	–
280.79 K	219.5 ± 0.9 J/K/mol	–
282.74 K	222.7 ± 0.9 J/K/mol	–
282.84 K	222.7 ± 0.9 J/K/mol	–
284.78 K	226.4 ± 1 J/K/mol	–
284.88 K	226.6 ± 1 J/K/mol	–
286.82 K	230.9 ± 1 J/K/mol	–
288.82 K	236.3 ± 1 J/K/mol	–
290 K	227.1 ± 1 J/K/mol	278.2 ± 1.2 J/K/mol
290.81 K	242.8 ± 1 J/K/mol	–
292.77 K	251.5 ± 1.1 J/K/mol	–
294.69 K	262.7 ± 1.1 J/K/mol	–
295.89 K	–	280.2 ± 1.2 J/K/mol
296.57 K	278.5 ± 1.2 J/K/mol	–
297.86 K	–	280.6 ± 1.2 J/K/mol
298.15 K	–	280.8 ± 1.2 J/K/mol
298.39 K	300.9 ± 1.3 J/K/mol	–
299.92 K	–	281.4 ± 1.2 J/K/mol
300 K	–	281.4 ± 1.2 J/K/mol
300.12 K	334.9 ± 1.5 J/K/mol	–
301.74 K	387.4 ± 1.8 J/K/mol	–
301.97 K	–	282 ± 1.2 J/K/mol
303.2 K	470.7 ± 2.5 J/K/mol	–
304.02 K	–	282.8 ± 1.2 J/K/mol
304.47 K	613.7 ± 4.1 J/K/mol	–
305.51 K	844.2 ± 7.1 J/K/mol	–
306.07 K	–	283.2 ± 1.2 J/K/mol
306.32 K	1193 ± 13 J/K/mol	–
306.93 K	1697 ± 14 J/K/mol	–
308.12 K	–	284.1 ± 1.2 J/K/mol
309.54 K	251.4 ± 1.1 J/K/mol	284.6 ± 1.2 J/K/mol
310 K	–	284.7 ± 1.2 J/K/mol
310.17 K	–	284.7 ± 1.2 J/K/mol
312.01 K	–	285.5 ± 1.2 J/K/mol
312.22 K	–	285.3 ± 1.2 J/K/mol
314.27 K	–	285.9 ± 1.2 J/K/mol
316.32 K	–	286.9 ± 1.2 J/K/mol
318.37 K	–	287.5 ± 1.2 J/K/mol
320 K	–	288.1 ± 1.2 J/K/mol
320.41 K	–	288.2 ± 1.2 J/K/mol
322.46 K	–	288.8 ± 1.2 J/K/mol
324.5 K	–	289.6 ± 1.2 J/K/mol
326.54 K	–	290.4 ± 1.2 J/K/mol
328.58 K	–	291 ± 1.2 J/K/mol
330 K	–	291.7 ± 1.3 J/K/mol
330.62 K	–	291.9 ± 1.2 J/K/mol
332.66 K	–	292.7 ± 1.2 J/K/mol
334.7 K	–	293.3 ± 1.2 J/K/mol
336.73 K	–	294.1 ± 1.2 J/K/mol
338.61 K	–	294.7 ± 1.2 J/K/mol
340 K	–	295.3 ± 1.3 J/K/mol
340.58 K	–	295.5 ± 1.2 J/K/mol
342.63 K	–	296.2 ± 1.2 J/K/mol
344.68 K	–	297 ± 1.2 J/K/mol
346.73 K	–	297.8 ± 1.2 J/K/mol
348.78 K	–	298.6 ± 1.2 J/K/mol
350 K	–	299.1 ± 1.3 J/K/mol
350.82 K	–	299.4 ± 1.2 J/K/mol
352.87 K	–	300.3 ± 1.3 J/K/mol
354.92 K	–	300.9 ± 1.3 J/K/mol
356.97 K	–	301.7 ± 1.3 J/K/mol
359.01 K	–	302.5 ± 1.3 J/K/mol
360 K	–	303 ± 1.3 J/K/mol
361.05 K	–	303.5 ± 1.3 J/K/mol
363.1 K	–	304.2 ± 1.3 J/K/mol
365.14 K	–	305 ± 1.3 J/K/mol
367.18 K	–	305.8 ± 1.3 J/K/mol
370 K	–	307 ± 1.3 J/K/mol

From the NIST ThermoML archive (doi:10.1016/j.jct.2014.07.018)
